A short description of series [1]: Absorption/fluorescence and photostability of IR780 exposed to daylight. The format is physicochemical. As to conditions: 10% ethanol.
The subject of series [2] is B16F10-OVA tumor and TdLNs. The note with it: 15 μL of 0.016 mg mL^−1 IR780 intratumoral, IVIS 24 h after injection.
The subject of series [3] is B16F10-OVA tumor. Briefly: GSNO (i.t.) and aCTLA-4 (i.p.) therapy without hydrogel, dual tumor model. The format is in vivo, mice. As to conditions: GSNO 480 μg kg^−1 i.t. day 7; aCTLA-4 100 μg mouse^−1 i.p. day 8, 11, 14; compared to saline. The procedure:
In brief, 10^5 B16F10-OVA (30 μL) was inoculated in left dorsal skin on day 0 and in right dorsal skin on day 4 to establish dual tumor model. 30 μL of saline or GSNO (480 μg kg ^−1) was administered to the left tumor on day 7 and 30 μL of aCTLA-4 (100 μg mouse^−1) was administered intraperitoneally on day 8, 11, 14.

Series [4] deals with immune cells in blood. Briefly: Immune cell profiles in blood (flow cytometry) after GSNO and aCTLA-4. The format is in vivo, mice. As to conditions: CD4+T, CD8+T, NKT populations. The protocol: Immune cells in blood were collected and profiled to delineate the systemic immunity in the combinational use of GSNO and aCTLA-4 (FIG. 29). In brief, ACK lysis buffer was treated to the blood taken on day 9 to harvest immune cells in blood by removing red blood cells. All cells were stored on ice<2 h prior to use. Cells for flow cytometry were prepared by six steps with PBS, FACS buffer, or permeabilization buffer (eBioscience™ Foxp3/Transcription Factor Staining Buffer Set, Invitrogen™) wash; 2.4G2 staining on ice for 5 min, Zombie Aqua fixable viability dye staining at room temperature for 30 min, […]-MHCI-PE tetramer (NIH Tetramer Core Facility, Atlanta, Georgia) staining on ice for 15 min, antibody mixtures staining on ice for 30 min, fixing and permeabilizing with Foxp3 Fixation/Permeabilization working solution (eBioscience™ Foxp3/Transcription Factor Staining Buffer Set, Invitrogen™) on ice for 60 min, and FoxP3 staining on ice for 75 min. LSR Fortessa flow cytometry and flowJo were employed to analyze and profiles the stained cells.
(Flow cytometry measures light scatter and fluorescence of single cells or particles in a stream.)

Each structure is given as a SMILES string.

As for `CCCN1C(=CC=C2CCCC(C=CC3=[N+](CCC)c4ccccc4C3(C)C)=C2Cl)C(C)(C)c2ccccc21.[I-]` [IR780, IR780 iodide], the “time to complete photobleaching” value in series [1] is reported as no more than 24 h. Besides, the “IR780 signal in injected tumor tissues and TdLNs” value in series [2] was “cleared quickly from the injected tumor tissues and exhibited negligible signals in the TdLNs”.

As to `N[C@@H](CCC(=O)N[C@@H](CSN=O)C(=O)NCC(=O)O)C(=O)O` [GSNO, S-nitrosoglutathione], the “therapeutic effects (1º and 2º tumor growth)” value in series [3] was “did not lead to any therapeutic effects”. In series [4], the “systemic activation and expansion of T cell, NK and NKT in blood” value was “failed to induce systemic activation and expansion of T cell, NK and NKT response”.

For the origin of these results see patent US20240139104A1, “MICELLE RELEASING THERMOSENSITIVE HYDROGELS AS A THERAPEUTIC DELIVERY SYSTEM” (GEORGIA TECH RESEARCH CORPORATION, priority 2021, published 2024).
